From US4789736A, “Complexes of technetium-99m with propylene amine oximes” (Amersham International plc, priority 1985, dated 1988)
Entries after “also recorded” stand apart in the source; their conditions may differ.

Key:
[1] = Rat biodistribution of Tc-99m complexes from isolated stereoisomers (Example 24); details: d- versus l-enantiomer; rats
Experimental: 0.1 ml of the Tc-99m complex solution was administered by intravenous injection (lateral tail vein) to each of five or six rats (140-220 g). The injected dose was equivalent to approximately 1 mCi of Tc-99m. Three rats were sacrificed at 2 minutes post injection, and 3 at 1 hour or 2 at 2 hours post injection. At dissection, the organs and blood samples shown in the following table were taken, and assayed for radioactivity. The uptake in each organ or tissue was calculated as a percentage of the total activity recovered.
Data in Tables (a) and (b) are the mean from 3 animals at each time point.

[2] = Clinical comparison of dl and meso diastereoisomers of Compound 1, whole body scanning (Example 25a); format: in vivo, normal volunteer subjects (human); details: 20 minutes p.i.; mean; human
Experimental: All clinical studies, involving comparisons between the Tc-99m complexes of dl and meso, and d,l and dl stereoisomers of Compound 1 were conducted in normal volunteer subjects at Aberdeen Royal Infirmary.
(a) Comparison of dl and meso diastereoisomers of Compound 1
Data is then taken from area of interest studies employing a whole body scanning device.

[3] = Animal biodistribution of Tc-99m complexes of ligands, no separation of stereoisomers (Example 22); format: in vivo, rats; details: for % id/organ, Blood / % id/organ, Brain / % id/organ, Heart / % id/organ, Liver: i.v. rats, mean of 3 animals
Experimental: The ratio of diastereoisomers in the Tc-99m complexes used in this experiment is not known.
The results at 2 minutes and 1 hour p.i. are the mean of 3 animals.
The results at 2 hours p.i. are the mean of 2 animals.

[4] = Blood clearance in human volunteers; format: in vivo, human volunteer subjects; details: for % id in blood: unseparated dl/meso mixture, human
Source text: (§1) The following data allows comparison of the relative performance of the complexes of compounds 1 and 2 (an unseparated dl/meso mixture in each case) in human volunteer subjects.

leucocytes = assay: In vitro labelling of leucocytes; format: cell-based; details: ambient temperature
Experimental: A solution of the technetium-99m complex of compound 1 was made as follows. A vial contained 0.5 mg compound 1; […] stannous chloride dihydrate; and 4.5 mg sodium chloride; freeze-dried and sealed under nitrogen. To this was added 5.0 ml of sodium pertechnetate eluate from a 135mCi technetium generator.
Mixed leucocytes were obtained from 34 ml of acid citrate anticoagulated blood by dextran sedimentation. These were washed twice and resuspended in 2.0 ml phosphate buffered saline containing approximately 0.25 mg/ml prostaglandin El. The suspension was incubated with 0.2 ml of the solution of the technetium-99m complex of compound 1. Incubation was at ambient temperature, and samples were removed at intervals for analysis. After two minutes, 60% of the radioactivity was associated with blood cells; after 5 minutes, 83% and after 10 minutes, 89%.

[5] = Whole body distribution in human volunteers; format: in vivo, human volunteer subjects; details: unseparated dl/meso mixture; for Whole body distribution, Bladder / Whole body distribution, Brain / Whole body distribution, Liver: 2 hrs p.i., human
Source text: as §1
(ii) Whole body distribution

[6] = Tomographic imaging of the brain in man; format: in vivo, normal volunteers (human); details: in words; unseparated dl/meso mixture; human
Experimental: Tomographic images of the brain were determined using the same complexes in normal volunteers. The device used was a single head rotating gamma camera and minicomputer system. 64 25-second images were accumulated by the gamma camera during 360° circular rotation of the head and shoulders of the volunteer.

[7] = In vitro stability of Tc-99m complexes (radiochemical purity by thin layer chromatography); format: physicochemical; details: for remaining at 2 min: 2 min post formation; for remaining at 2 min / remaining at 1 h / remaining at 2 h: dl/meso mixture, read-out: % of the desired Tc-99m complex; for remaining at 1 h: 60 min post formation; for remaining at 2 h: 120 min post formation; for in vitro stability of the Tc-99m complex: in words, complex of compound 1 versus compound 2
Experimental: Glass fibre strips impregnated with silica gel form the stationary phase of a fast and accurate analytical system. Two strips, each measuring 20 cm×2 cm were used in each analysis. Approximately five microliters of the solution containing the complex was applied 1 cm from the base of each strip, and one strip developed with saline, the other with methylethylketone (MEK).
Determination of the distribution of radioactivity along each strip was conducted by means of a 100 channel analysis system interfaced to a Nova computer, programmed for peak integration. The Table below indicates the RF values of the major components of the Tc-99m solutions. The observed radiochemical purity of the Tc-99m complexes was generally greater than 80%.
Radiochemical purity determinations by thin layer chromatography were carried out at several time points following formation of the technetium complexes of compounds 1 and 2 (a dl/meso mixture in each case) to determine the stability of the complexes.

CC(=NO)C(C)NCC(C)(C)CNC(C)C(C)=NO (racemic) [Compound 1, 4,8-diaza-3,6,6,9-tetramethylundecane-2,10-dione bis oxime]
difference in brain uptake of the d- and l-enantiomers (factor) [1]: 1.6 | % injected activity, Bladder + Urine [2]: 1.4 % injected activity | % injected activity, Brain [2]: 1.95 % injected activity | % injected activity, Kidneys [2]: 1.95 % injected activity | % injected activity, Liver [2]: 13.0 % injected activity | % id/organ, Blood ([3]; 2 min pi): 16.7 % id/organ | % id/organ, Brain ([3]; 2 min pi): 1.5 % id/organ | % id/organ, Heart ([3]; 2 min pi): 0.4 % id/organ | % id/organ, Liver ([3]; 2 min pi): 8.4 % id/organ | % id/organ, Blood ([3]; 1 hr pi): 19.6 % id/organ | % id/organ, Brain ([3]; 1 hr pi): 1.2 % id/organ | % id/organ, Heart ([3]; 1 hr pi): 0.2 % id/organ | % id/organ, Liver ([3]; 1 hr pi): 5.4 % id/organ | uptake in the brain of rats ([3]; in words, unseparated dl/meso mixture): Good uptake in the brain | % id in blood ([4]; 14 minutes post injection): 9.54 % id | % id in blood ([4]; 40 minutes post injection): 7.73 % id | % id in blood ([4]; 60 minutes post injection): 6.38 % id | % id in blood ([4]; 250 minutes post injection): 5.26 % id | radioactivity associated with blood cells (leucocytes; after 5 minutes): 83% | radioactivity associated with blood cells (leucocytes; after 10 minutes): 89% | radioactivity associated with blood cells (leucocytes; after two minutes): 60% | Whole body distribution, Bladder [5]: 3.9 | Whole body distribution, Brain [5]: 3.70 | Whole body distribution, Liver [5]: 23.35 | removal of radioactivity from brain in humans ([5]; in words): Slow removal of radioactivity from brain | uptake in the brain of humans ([5]; in words): Good uptake in the brain | quality of tomographic images of the brain [6]: Good quality tomographic images of the brain | remaining at 2 min [7]: 92% | remaining at 1 h [7]: 87% | remaining at 2 h [7]: 79% | in vitro stability of the Tc-99m complex [7]: only slow in vitro degradation

CC(=NO)C(C)NCCCNC(C)C(C)=NO (racemic) [Compound 2, 4,8-Diaza-3,9-dimethylundecane-2,10-dione bis oxime]
% id/organ, Blood ([3]; 2 min pi): 14.6 % id/organ | % id/organ, Brain ([3]; 2 min pi): 1.6 % id/organ | % id/organ, Heart ([3]; 2 min pi): 0.5 % id/organ | % id/organ, Liver ([3]; 2 min pi): 10.9 % id/organ | % id/organ, Blood ([3]; 1 hr pi): 12.4 % id/organ | % id/organ, Brain ([3]; 1 hr pi): 1.4 % id/organ | % id/organ, Heart ([3]; 1 hr pi): 0.5 % id/organ | % id/organ, Liver ([3]; 1 hr pi): 4.9 % id/organ | % id in blood ([4]; 14 minutes post injection): 11.06 % id | % id in blood ([4]; 40 minutes post injection): 6.9 % id | % id in blood ([4]; 60 minutes post injection): 5.93 % id | % id in blood ([4]; 250 minutes post injection): 3.98 % id | blood and tissue background clearance of activity in humans ([4]; in words, compound 1 versus complex of compound 2): Better blood and tissue background clearance | Whole body distribution, Bladder [5]: 21.02 | Whole body distribution, Brain [5]: 3.48 | Whole body distribution, Liver [5]: 13.21 | quality of tomographic images of the brain [6]: less good, due to a higher level of background radiation | remaining at 2 min [7]: 82% | remaining at 1 h [7]: 60% | remaining at 2 h [7]: 47% | percent of the Tc-99m not in the form of the complex, Compound 2 relative to Compound 1 ([7]; at all times): more than twice as great | in vitro stability of the Tc-99m complex [7]: greatly inferior to that of the complex of compound 1; also recorded: Far better in vitro stability; also recorded: rapid in vitro degradation
